Where two headings read alike, the source gives them in different places. Blank lines part the entries; values can stand above or below the compound they belong to.
Tests used:
[1] = Phase 1 study, interim cohort pharmacokinetics; assay type: in vivo, human; details: for dose proportionality of PK: Cycle 2 Day 1 (C2D1); for exposure with increase in dose: interim cohort PK
Procedure: Serial blood samples are obtained to characterize the plasma PK of Compound A and its major active metabolites. The initial sampling strategy is based on the predicted human PK of this compound. If in the course of evaluating the PK, it is determined that an alternative sampling scheme would be more informative, then that alternative sampling scheme can be implemented if the total amount of blood and blood draws obtained for PK is not increased. Moreover, the total number of samples can be decreased at any time if the initial sampling scheme is considered unnecessarily intensive.

[2] = cited from earlier work
[3] = tested on: NSCLC; details: cited from earlier work
[4] = tested on: advanced NSCLC; details: cited from earlier work
[5] = tested on: NSCLC; details: cited from earlier work; remark: listed apart in the source
[6] = tested on: PD-1 pathway; details: cited from earlier work
[7] = tested on: CMV specific memory T cells; details: versus isotype-matched control, dose-dependent; cited from earlier work
[8] = tested on: PD-L1-positive, advanced NSCLC; details: cited from earlier work
[9] = tested on: advanced melanoma; details: median follow-up 9 months after completion of 2 years of pembrolizumab; cited from earlier work

ratio of Compound B to Compound A ([1]; C2D1, 400 mg and 800 mg dose): 1.3-1.4 x parent
Compound B metabolite ratio ([1]; C2D1, cohorts above 200 mg): increased
dose proportionality of PK [1]: greater than dose proportional
accumulation with repeat dosing ([1]; above 200 mg): Accumulation
exposure with increase in dose [1]: Increased exposure with increase in dose
AUC relative to Compound A ([1]; repeated dosing, 2/3 subjects at 400 and 800 mg): greater than Compound A
Compound: CC(C)(O)c1cnn2c(N[C@@H]3CCc4[nH]c5ccccc5c4C3)nc(-c3cncc(F)c3)nc12 [Compound B]

ratio of Compound C to Compound A (AUC) ([1]; 400 mg and 800 mg dose): 15-20 % of parent
dose proportionality of PK [1]: greater than dose proportional
exposure with increase in dose [1]: Increased exposure with increase in dose
Compound: C=C(C)c1cnn2c(N[C@@H]3CCc4[nH]c5ccccc5c4C3)nc(-c3cncc(F)c3)nc12 [Compound C]

Compound: ipilimumab: drug combined with nivolumab; comparator in Keynote-006
effect on the clearance of ipilimumab ([2]; nivolumab in combination with ipilimumab): no effect

Compound: nivolumab: human monoclonal antibody (IgG4 kappa immunoglobulin) that blocks the interaction between PD-1 and its ligands
subjects alive >5 years and progression-free without subsequent therapy ([3]; among 16 NSCLC subjects who discontinued after 2 years of treatment): 12 subjects
OS rate ([3]; at 2 years): 25%
OS rate ([3]; at 3 years): 18%
OS HR, continued treatment ([4]; median follow-up 14.9 months post-randomization): 0.63
PFS HR, continue versus stop treatment ([4]; post-randomization after 1 year of nivolumab): 0.42
median PFS (post-randomization) ([4]; randomized to continue nivolumab): not reached
median PFS (post-randomization) ([4]; randomized to stop treatment): 10.3 months
2 year OS rate ([5]; non-squamous NSCLC): 29%
2 year OS rate ([5]; squamous NSCLC): 23%
3 year OS rates ([5]; squamous and non-squamous NSCLC): 16%-18%
proliferation and IFN-γ release in the MLR [6]: reproducible enhancement
IFN-γ secretion from CMV specific memory T cells [7]: augmented IFN-γ secretion
systemic accumulation ([2]; 3 mg/kg Q2W): approximately 3 fold
time to steady-state concentrations ([2]; 3 mg/kg Q2W): ≤ 12 weeks
exposure versus dose ([2]; 0.1 to 10 mg/kg every 2 weeks): increased dose proportionally
geometric mean clearance (CL) ([2]; 0.1 to 10 mg/kg, single or multiple doses): 9.5 mL/h
geometric mean elimination half-life (t½) ([2]; 0.1 to 10 mg/kg): 26.7 days
geometric mean volume of distribution at steady state (Vss) ([2]; 0.1 to 10 mg/kg): 8.0 L
increase of CL of nivolumab ([2]; in combination with ipilimumab): 24%

Compound: pembrolizumab
patients with confirmed progression after stopping at 2 years ([8]; 47 patients who completed 2 years): 4%
OS hazard ratio (HR) compared to docetaxel ([8]; pembrolizumab 2 mg/kg every 3 weeks): 0.72
OS hazard ratio (HR) compared to docetaxel ([8]; pembrolizumab 10 mg/kg every 3 weeks): 0.60
estimated risk of progression or death [9]: 9%

Source: patent publication US20240148740A1, “COMBINATION OF AN AHR INHIBITOR WITH A PDX INHIBITOR OR DOXORUBICINE” (Ikena Oncology, Inc., priority 2020, published 2024)
